The values that follow come from ChEMBL document CHEMBL5724914, “Linking interpersonal differences in gut microbiota composition and drug biotransformation activity” (2024).

Structures are written as SMILES.

The conditions of data set [1]: human gut metagenome, 24 h, 2 µM.
Data set [2] is described as follows: The drug is tested on Z-014 corresponding to rat gut metagenome with ENA study accession number: PRJEB37062 and ENA sample accession number: ERS12561814 for biotransformation under anaerobic condition. The drug concentrations were measured over 9 timepoints collected between 0 and 24 hours of incubation by liquid-chromatography-coupled mass spectrometry (LC–MS). The conditions noted are these: 2 µM.

The nature of data set [3]: The drug is tested on Z-029 corresponding to rat gut metagenome with ENA study accession number: PRJEB37062 and ENA sample accession number: ERS12561828 for biotransformation under anaerobic condition. The drug concentrations were measured over 9 timepoints collected between 0 and 24 hours of incubation by liquid-chromatography-coupled mass spectrometry (LC–MS). To be noted: 2 µM.

Data set [4] in a line: The drug is tested on Z-025 corresponding to rabbit gut metagenome with ENA study accession number: PRJEB37062 and ENA sample accession number: ERS12561824 for biotransformation under anaerobic condition. The drug concentrations were measured over 9 timepoints collected between 0 and 24 hours of incubation by liquid-chromatography-coupled mass spectrometry (LC–MS). To be noted: 2 µM.

For data set [5] the following is noted: human gut metagenome, 24 h, 2 µM. The source holds these as a separate data set.
The conditions of data set [6]: human gut metagenome, 24 h, 2 µM. The source holds these as a separate data set.
A short description of data set [7]: The drug is tested on Z-004 corresponding to metagenome with ENA study accession number: PRJEB37062 and ENA sample accession number: ERS12561804 for biotransformation under anaerobic condition. The drug concentrations were measured over 9 timepoints collected between 0 and 24 hours of incubation by liquid-chromatography-coupled mass spectrometry (LC–MS). The conditions noted are these: 2 µM.

Data set [8] can be described thus: The drug is tested on Z-016 corresponding to mouse gut metagenome with ENA study accession number: PRJEB37062 and ENA sample accession number: ERS12561815 for biotransformation under anaerobic condition. The drug concentrations were measured over 9 timepoints collected between 0 and 24 hours of incubation by liquid-chromatography-coupled mass spectrometry (LC–MS). To be noted: 2 µM.

The nature of data set [9]: The drug is tested on WLS-170 corresponding to human gut metagenome with ENA study accession number: PRJEB37062 and ENA sample accession number: ERS12561762 for biotransformation under anaerobic condition. The drug concentrations were measured over 9 timepoints collected between 0 and 24 hours of incubation by liquid-chromatography-coupled mass spectrometry (LC–MS). To be noted: 2 µM.
Note: call rule not given here.

For `COc1ccc([C@@H]2Sc3ccccc3N(CCN(C)C)C(=O)[C@@H]2OC(C)=O)cc1` [DILTIAZEM], the “Bacterial Biotransformation” value in data set [1] is on record as “Compound NOT metabolized”; in data set [2], “Compound NOT metabolized”; in data set [3], “Compound NOT metabolized”; in data set [4] it was “Compound NOT metabolized”; in [5], “Compound metabolized”; in data set [6], “Compound metabolized”. Besides, the “Bacterial Biotransformation” value in data set [7], in data set [8] and in data set [9] was “Compound metabolized” in each case.

`CC(C)(C)NC(=O)[C@H]1CC[C@H]2[C@@H]3CC[C@H]4NC(=O)C=C[C@]4(C)[C@H]3CC[C@]12C` [FINASTERIDE]: the “Bacterial Biotransformation” value is “Compound NOT metabolized” in data set [1]; “Compound NOT metabolized” in [2]; “Compound NOT metabolized” in [3]; “Compound NOT metabolized” in [4]; “Compound metabolized” in data set [5]; “Compound metabolized” in data set [6]. Moreover, the entries for the “Bacterial Biotransformation” value in data set [7], in data set [8] and in [9] were “Compound NOT metabolized”, “Compound metabolized” and “Compound metabolized”, respectively.

In the case of `CC(CCc1ccccc1)NCC(O)c1ccc(O)c(C(N)=O)c1` (stereo unspecified) [LABETALOL], the “Bacterial Biotransformation” value in data set [1] is given as “Compound NOT metabolized”; in [2], “Compound NOT metabolized”; in data set [3] it was “Compound NOT metabolized”; in data set [4], “Compound metabolized”; in data set [5], “Compound NOT metabolized”; in data set [6], “Compound NOT metabolized”. The “Bacterial Biotransformation” value in [7], in [8] and in data set [9] was “Compound NOT metabolized” in each case.

Regarding `CC(C)(C)NCC(O)COc1cccc2c1CC(O)C(O)C2` (stereo unspecified) [NADOLOL], the “Bacterial Biotransformation” value in data set [1], in [2], in [3], in [4], in data set [5] and in data set [6] was “Compound NOT metabolized” each time. The “Bacterial Biotransformation” value in data set [7] is recorded as “Compound NOT metabolized”; in data set [8], “Compound NOT metabolized”; in data set [9] it was “Compound metabolized”.

Take `CCN(CC)CCNC(=O)c1cc(S(C)(=O)=O)ccc1OC` [TIAPRIDE]: the “Bacterial Biotransformation” value in data set [1], in [2], in data set [3], in data set [4], in [5] and in data set [6] was “Compound NOT metabolized” in each case. Moreover, the “Bacterial Biotransformation” value in data set [7], in data set [8] and in data set [9] was “Compound NOT metabolized” each time.

As for `COc1cc(NC(C)CCCN)c2ncccc2c1.O=P(O)(O)O.O=P(O)(O)O` (stereo unspecified) [PRIMAQUINE PHOSPHATE], the “Bacterial Biotransformation” value in data set [1] is “Compound NOT metabolized”; in data set [2] it was “Compound NOT metabolized”; in data set [3], “Compound NOT metabolized”; in data set [4], “Compound metabolized”; in data set [5], “Compound NOT metabolized”; in data set [6] it was “Compound NOT metabolized”. Besides, the “Bacterial Biotransformation” value in data set [7] is given as “Compound NOT metabolized”; in data set [8], “Compound metabolized”; in data set [9], “Compound NOT metabolized”.

Regarding `CC(NC(C)(C)C)C(=O)c1cccc(Cl)c1` (stereo unspecified) [BUPROPION], the “Bacterial Biotransformation” value in data set [1], in [2], in data set [3], in data set [4], in data set [5] and in [6] was “Compound NOT metabolized” each time. Besides, the “Bacterial Biotransformation” value in data set [7], in data set [8] and in data set [9] was “Compound NOT metabolized” each time.

For the compound `C[N+]12CCC(CC1)C(OC(=O)C(O)(c1ccccc1)c1ccccc1)C2.[Br-]` (stereo unspecified) [CLIDINIUM BROMIDE], the “Bacterial Biotransformation” value in data set [1], in data set [2], in data set [3], in data set [4], in data set [5] and in data set [6] was “Compound NOT metabolized” in each case. The entries for the “Bacterial Biotransformation” value in [7], in data set [8] and in [9] were “Compound NOT metabolized”, “Compound NOT metabolized” and “Compound metabolized”, respectively.

Regarding `CCCN1C[C@H](CSC)C[C@@H]2c3cccc4[nH]cc(c34)C[C@H]21.CS(=O)(=O)O` [PERGOLIDE MESYLATE], the “Bacterial Biotransformation” value is “Compound NOT metabolized” in data set [1]; “Compound NOT metabolized” in data set [2]; “Compound NOT metabolized” in data set [3]; “Compound metabolized” in data set [4]; “Compound NOT metabolized” in [5]; “Compound NOT metabolized” in [6]. Further, the “Bacterial Biotransformation” value in [7], in data set [8] and in data set [9] was “Compound NOT metabolized” throughout.

`O=C1C(CC[S+]([O-])c2ccccc2)C(=O)N(c2ccccc2)N1c1ccccc1` (stereo unspecified) [SULFINPYRAZONE]: the “Bacterial Biotransformation” value in data set [1] is on record as “Compound metabolized”; in data set [2], “Compound NOT metabolized”; in [3], “Compound NOT metabolized”; in [4], “Compound NOT metabolized”; in [5] it was “Compound metabolized”; in data set [6], “Compound metabolized”. For the same compound, the “Bacterial Biotransformation” value in data set [7] is listed as “Compound NOT metabolized”; in [8], “Compound NOT metabolized”; in data set [9], “Compound metabolized”.

On to `CCOC(=O)C1=C[C@]2(CC)CCCN3CCc4c(n1c1ccccc41)[C@@H]32` [VINPOCETINE], for which the “Bacterial Biotransformation” value in data set [1] is listed as “Compound metabolized”; in [2], “Compound NOT metabolized”; in [3] it was “Compound NOT metabolized”; in data set [4], “Compound NOT metabolized”; in [5] it was “Compound NOT metabolized”; in [6], “Compound metabolized”. For the same compound, the “Bacterial Biotransformation” value in data set [7] is on record as “Compound NOT metabolized”; in [8], “Compound metabolized”; in [9] it was “Compound metabolized”.

Consider `CCN(CC)C(=O)C1(c2ccccc2)CC1CN` (stereo unspecified), for which the “Bacterial Biotransformation” value in data set [1], in [2], in data set [3], in data set [4], in [5] and in data set [6] was “Compound NOT metabolized” throughout. The entries for the “Bacterial Biotransformation” value in data set [7], in data set [8] and in [9] were “Compound NOT metabolized”, “Compound NOT metabolized” and “Compound metabolized”, respectively.

As for `CC(N)C12CC3CC(CC(C3)C1)C2` (stereo unspecified) [RIMANTADINE], the “Bacterial Biotransformation” value in data set [1], in data set [2], in data set [3], in data set [4], in data set [5] and in data set [6] was “Compound NOT metabolized” in each case. Besides, the “Bacterial Biotransformation” value was “Compound NOT metabolized” in data set [7], “Compound NOT metabolized” in data set [8] and “Compound metabolized” in [9].

For the compound `O=P1(N(CCCl)CCCl)NCCCO1` (stereo unspecified) [CYCLOPHOSPHAMIDE ANHYDROUS], the “Bacterial Biotransformation” value in [1] is listed as “Compound NOT metabolized”; in [2] it was “Compound NOT metabolized”; in data set [3], “Compound NOT metabolized”; in data set [4] it was “Compound NOT metabolized”; in [5], “Compound NOT metabolized”; in [6], “Compound metabolized”. The “Bacterial Biotransformation” value is reported as “Compound metabolized” in [7], “Compound NOT metabolized” in data set [8] and “Compound metabolized” in data set [9].
